This assay deals with NKT cells. Put plainly: Repeated in vivo NKT cell stimulation, serum IFN-γ by ELISA. The arrangement: species or system C57BL/6 mice. Conditions: for IFN-γ (serum): 1 μg αGalCer i.v., bled 24 hours after treatment, mean ± SD of three mice. As for the experimental part:
Nanoparticle containing 1 μg alpha-galactosylceramide was injected to C57BL6 mice, with non-conjugated nanoparticles as negative control. In parallel, we studied soluble form of alpha-galactosylceramide.
C57/BL6 mice were purchased from the Jackson Laboratory (Bar Arbor, Me.) and housed in M.D. Anderson Cancer Center animal facilities under standard pathogen free conditions abiding institutional guidelines. 6 weeks old C57BL/6 mice were used for all experiments. 3 mice per group were used for each experiment. 1 μg alpha-galactosylceramide, or nanoparticle formulated alpha-galactosylceramide in 200 μL PBS was intravenously injected (through tail vein) to each mouse. Mice were treated every 10 days for 3 times. 200 μL of PBS/1% DMSO was used as control.
Mice were bled at 24 hours after each drug treatment. Serum IFN-γ was measured by ELISA using a kit from BD Biosciences (San Jose, Calif.).
Background: In an ELISA, binding on a coated surface is turned into a signal by an enzyme label.

The source of these data is patent US8546371B2, “Nanoparticle formulated glycolipid antigens for immunotherapy” (Board of Regents, The University of Texas System, priority 2009, dated 2013).

The structures appear in SMILES notation.

As for `CCCCCCCCCCCCCCCCCCCCCCCCCC(=O)N[C@@H](CO[C@H]1O[C@H](CO)[C@H](O)[C@H](O)[C@H]1O)[C@H](O)[C@H](O)CCCCCCCCCCCCCC` [αGalCer, Alpha-galactosylceramide], the “IFN-γ secretion upon repeated stimulation (anergy of NKT cells)” value (3 treatments every 10 days, i.v.) was “caused IFN-γ secretion only at the first treatment and failed to induce upon subsequent stimulations”. The “IFN-γ (serum)” value (x1 injection) is reported as 2601 ± 257 pg/mL, the “IFN-γ (serum)” value (x2 injection (every 10 days)) is 65 ± 2 pg/mL and the “IFN-γ (serum)” value (x3 injection (every 10 days)) is 40 ± 11 pg/mL.
